# Assay results: PMC7160233, “Peptides With Triplet-Tryptophan-Pivot Promoted Pathogenic Bacteria Membrane Defects” (Frontiers in Microbiology, 2020)
# Where a SMILES comes first, the peptide text is derived from it.
# Tests used:
# L. rhamnosus 1.9025 = format: cell-based, Lactobacillus rhamnosus; conditions: 24 h
# Description: (§1) The antibacterial activity of the peptides was measured using a method adopted from the Clinical Laboratory Standards Institute (CLSI), with modifications. 50 μL bacterial cells solution with 1000-fold of OD600 = 0.4 was mixed with 50 μL of each peptide of various concentration ranged from 2 to 64 μM dissolved in BSA (0.2% with 0.01% acetic acid) and incubated in sterile 96-well plates at 37°C for 24 h. The MICs were calculated as the lowest concentration of peptide with no microbial growth being observed. Broth with microbial cells and uninoculated broth were used as positive control and negative control, respectively. The tests were performed at least three times.
# L. rhamnosus 1.0911 = format: cell-based, Lactobacillus rhamnosus; conditions: 24 h
# Description: as §1
# L. rhamnosus 1.0386 = format: cell-based, Lactobacillus rhamnosus; conditions: 24 h
# Description: as §1
# L. rhamnosus 7469 = format: cell-based, Lactobacillus rhamnosus; conditions: 24 h
# Description: as §1
# L. rhamnosus 1.0385 = format: cell-based, Lactobacillus rhamnosus; conditions: 24 h
# Description: as §1
# S. aureus 29213 = format: cell-based, Staphylococcus aureus; conditions: 29213, 24 h
# Description: as §1
# P. aeruginosa 27853 = format: cell-based, Pseudomonas aeruginosa; conditions: 27853, 24 h
# Description: as §1
# S. epidermidis 12228 = format: cell-based, Staphylococcus epidermidis; conditions: 12228, 24 h
# Description: as §1
# E. coli UB 1005 = test: MIC measurement (modified CLSI broth microdilution); format: cell-based, Escherichia coli; conditions: peptide 2-64 μM in 0.2% BSA with 0.01% acetic acid, 37°C, 24 h, at least three times
# Description: as §1
# L. plantarum 8014 = format: cell-based; conditions: 24 h
# Description: as §1
# MRSA* 43300 = format: cell-based, methicillin-resistant Staphylococcus aureus; conditions: * 43300, 24 h
# Description: as §1
# E. coli 25922 = format: cell-based, Escherichia coli; conditions: 25922, 24 h
# Description: as §1
# pathogens = test: Geometric mean of MICs against pathogens; format: cell-based; conditions: six pathogenic strains of Table 2
# Description: as §1
# Lactobacillus = format: cell-based; conditions: probiotic strains of Table 2
# Description: as §1
# E. coli ATCC 25922 = test: Drug resistance experiment (sequential passaging); format: cell-based, Escherichia coli; conditions: E. coli 25922, passaged at sub-MIC for 30 days
# Description: Resistance development of E. coli ATCC 25922 against antibiotics was investigated using a sequential passaging method. Briefly, in the first generation, the MIC value was determined as described previously. After a 24 h incubation, bacterial cells growing in a well with a half-MIC level were harvested and diluted to 0.05 at OD600, followed by a 1:10 dilution in fresh MHB. The inoculum was subjected to subsequent passage MIC testing, and the process was repeated for 30 days. The fold change in MIC was plotted against the number of passages.
SMILES,MIC L. rhamnosus 1.9025 (L. rhamnosus 1.9025) [μ M],MIC L. rhamnosus 1.0911 (L. rhamnosus 1.0911) [μ M],MIC L. rhamnosus 1.0386 (L. rhamnosus 1.0386) [μ M],MIC L. rhamnosus 7469 (L. rhamnosus 7469) [μ M],MIC L. rhamnosus 1.0385 (L. rhamnosus 1.0385) [μ M],MIC S. aureus 29213 (S. aureus 29213) [μ M],MIC P. aeruginosa 27853 (P. aeruginosa 27853) [μ M],MIC S. epidermidis 12228 (S. epidermidis 12228) [μ M],MIC E. coli UB 1005 (E. coli UB 1005) [μ M],MIC L. plantarum 8014 (L. plantarum 8014) [μ M],MIC MRSA* 43300 (MRSA* 43300) [μ M],MIC E. coli 25922 (E. coli 25922) [μ M],geometric mean (GM) of MICs against pathogens (pathogens) [µM],MIC against Lactobacillus (Lactobacillus),resistance development (change in MIC on serial passaging) (E. coli ATCC 25922)
N=C(N)NCCC[C@H](NC(=O)[C@H](CCCNC(=N)N)NC(=O)[C@H](Cc1c[nH]c2ccccc12)NC(=O)[C@H](CS)NC(=O)[C@H](Cc1c[nH]c2ccccc12)NC(=O)[C@H](Cc1c[nH]c2ccccc12)NC(=O)[C@H](Cc1c[nH]c2ccccc12)NC(=O)[C@H](CS)NC(=O)[C@H](Cc1c[nH]c2ccccc12)NC(=O)[C@H](CCCNC(=N)N)NC(=O)[C@@H](N)CCCNC(=N)N)C(N)=O [Peptide S1] (H-RRWCWWWCWRR-NH2; N-terminus assumed),>64,>64,>64,>64,16,8,8,8,16,8,4,>64,–,–,–
N=C(N)NCCC[C@H](NC(=O)[C@H](CCCNC(=N)N)NC(=O)[C@H](Cc1c[nH]c2ccccc12)NC(=O)[C@H](CC(N)=O)NC(=O)[C@H](Cc1c[nH]c2ccccc12)NC(=O)[C@H](Cc1c[nH]c2ccccc12)NC(=O)[C@H](Cc1c[nH]c2ccccc12)NC(=O)[C@H](CC(N)=O)NC(=O)[C@H](Cc1c[nH]c2ccccc12)NC(=O)[C@H](CCCNC(=N)N)NC(=O)[C@@H](N)CCCNC(=N)N)C(N)=O [Peptide S3] (H-RRWNWWWNWRR-NH2),>64,>64,>64,>64,>64,>64,>64,>64,>64,>64,>64,>64,–,–,–
C[C@@H](O)[C@H](NC(=O)[C@H](Cc1c[nH]c2ccccc12)NC(=O)[C@H](Cc1c[nH]c2ccccc12)NC(=O)[C@H](Cc1c[nH]c2ccccc12)NC(=O)[C@@H](NC(=O)[C@H](Cc1c[nH]c2ccccc12)NC(=O)[C@H](CCCNC(=N)N)NC(=O)[C@@H](N)CCCNC(=N)N)[C@@H](C)O)C(=O)N[C@@H](Cc1c[nH]c2ccccc12)C(=O)N[C@@H](CCCNC(=N)N)C(=O)N[C@@H](CCCNC(=N)N)C(N)=O [Peptide S5] (H-RRWTWWWTWRR-NH2),>64,>64,>64,>64,>64,1,4,2,2,>64,4,2,2.24,more than 64 μM,–
N=C(N)NCCC[C@H](NC(=O)[C@H](CCCNC(=N)N)NC(=O)[C@H](Cc1c[nH]c2ccccc12)NC(=O)CNC(=O)[C@H](Cc1c[nH]c2ccccc12)NC(=O)[C@H](Cc1c[nH]c2ccccc12)NC(=O)[C@H](Cc1c[nH]c2ccccc12)NC(=O)CNC(=O)[C@H](Cc1c[nH]c2ccccc12)NC(=O)[C@H](CCCNC(=N)N)NC(=O)[C@@H](N)CCCNC(=N)N)C(N)=O [Peptide S6] (H-RRWGWWWGWRR-NH2),>64,>64,>64,>64,>64,16,8,>64,2,>64,16,4,–,–,–
N=C(N)NCCC[C@H](NC(=O)[C@H](CCCNC(=N)N)NC(=O)[C@H](Cc1c[nH]c2ccccc12)NC(=O)[C@H](CO)NC(=O)[C@H](Cc1c[nH]c2ccccc12)NC(=O)[C@H](Cc1c[nH]c2ccccc12)NC(=O)[C@H](Cc1c[nH]c2ccccc12)NC(=O)[C@H](CO)NC(=O)[C@H](Cc1c[nH]c2ccccc12)NC(=O)[C@H](CCCNC(=N)N)NC(=O)[C@@H](N)CCCNC(=N)N)C(N)=O [Peptide S7] (H-RRWSWWWSWRR-NH2),>64,>64,>64,>64,>64,4,4,4,2,>64,2,4,3.17,more than 64 μM,–
N=C(N)NCCC[C@H](NC(=O)[C@H](CCCNC(=N)N)NC(=O)[C@H](Cc1c[nH]c2ccccc12)NC(=O)[C@H](CCC(N)=O)NC(=O)[C@H](Cc1c[nH]c2ccccc12)NC(=O)[C@H](Cc1c[nH]c2ccccc12)NC(=O)[C@H](Cc1c[nH]c2ccccc12)NC(=O)[C@H](CCC(N)=O)NC(=O)[C@H](Cc1c[nH]c2ccccc12)NC(=O)[C@H](CCCNC(=N)N)NC(=O)[C@@H](N)CCCNC(=N)N)C(N)=O [Peptide S4] (H-RRWQWWWQWRR-NH2),>64,>64,64,>64,16,4,4,4,4,8,4,4,–,–,–
N=C(N)NCCC[C@H](NC(=O)[C@H](CCCNC(=N)N)NC(=O)[C@H](Cc1c[nH]c2ccccc12)NC(=O)[C@H](Cc1ccc(O)cc1)NC(=O)[C@H](Cc1c[nH]c2ccccc12)NC(=O)[C@H](Cc1c[nH]c2ccccc12)NC(=O)[C@H](Cc1c[nH]c2ccccc12)NC(=O)[C@H](Cc1ccc(O)cc1)NC(=O)[C@H](Cc1c[nH]c2ccccc12)NC(=O)[C@H](CCCNC(=N)N)NC(=O)[C@@H](N)CCCNC(=N)N)C(N)=O [Peptide S2] (H-RRWYWWWYWRR-NH2),>64,>64,16,>64,16,8,8,8,32,4,8,32,–,–,–
CN(C)[C@@H]1C(O)=C(C(N)=O)C(=O)[C@@]2(O)C(O)=C3C(=O)c4c(O)cccc4[C@@](C)(O)[C@H]3C[C@@H]12 [tetracycline],–,–,–,–,–,–,–,–,–,–,–,–,–,–,induced rapid resistance acquisition
